Measured values published in PubChem BioAssay AID2286 (Southern Research Specialized Biocontainment Screening …, 2010).
Calls of active or inactive are those of the source.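 How the source made its calls: active means minimum cell viability of 80% or lower across the dose range, counted as toxic; inactive means minimum cell viability above 80%.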

Test: MAGI-CCR5 and HeLa-R5-16 cytotoxicity, dose response, cytotoxicity control for HIV-1 fusion inhibitor project, cell-based, MAGI and MAGI-HeLa co-culture (AID 2286);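 further: cells exposed to compound for at least 64 h before ATP readout; 100% = median of DMSO vehicle wells with no ATP signal meaning 0%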
Details: MAGI-CCR5 cells viability, CellTiter-Glo ATP luminescence; for minimum viability: measured here: MAGI minimum viability across doses
[1] = MAGI-HeLa co-culture viability, at 50 µM, stronger effect = lower value
[2] = at 1.56 µM, stronger effect = lower value
[3] = at 12.5 µM, stronger effect = lower value
[4] = at 3.13 µM, stronger effect = lower value
[5] = at 6.25 µM, stronger effect = lower value

Row | SMILES | viability [1] [%] | viability (at 50 µM (top of the series)) | minimum viability (at 50 µM, stronger effect = lower value) [%] | other results
1 | Cc1ccc2nc(N3C(=O)C(O)=C(C(=O)c4ccco4)C3c3cccc(O)c3)sc2c1 (stereo not drawn) | 105 | 93.2% (inactive) | – | minimum viability [2]: 84.4%
2 | O=C1N/C(=N\S(=O)(=O)c2ccccc2)S/C1=C\c1cc([N+](=O)[O-])ccc1O | 107 | 93.8% (inactive) | – | minimum viability [3]: 88.1%
3 | O=C(O)C(c1ccccc1)N1C(=O)/C(=C\c2ccc(O)c(O)c2)SC1=S (stereo not drawn) | 95.1 | 105% (inactive) | – | minimum viability [3]: 99.2%
4 | Cc1ccc(S(=O)(=O)Oc2ccc(/C=C3/C(=N)N4C(=NC3=O)SN=C4S(C)(=O)=O)cc2)cc1 | 104 | – | 78.9 | –
5 | COc1ccc(C(=O)COC(=O)c2ccccc2NS(=O)(=O)c2ccc(O)c([N+](=O)[O-])c2)cc1 | 96 | 83.3% (inactive) | 83.3 | –
6 | CCc1nnc(NS(=O)(=O)c2ccc(NC(=S)NC(=O)/C=C/c3cccs3)cc2)s1 | 105 | 93.8% (inactive) | – | minimum viability (at 25 µM, stronger effect = lower value): 83.5%
7 | O=C(O)c1ccccc1N=Nc1c(O)[nH]c2ccc([N+](=O)[O-])cc12 | 87.3 | 90.2% (inactive) | 90.2 | –
8 | CCC(Sc1nc2ccsc2c(=O)n1Cc1ccc(C(=O)O)cc1)C(=O)Nc1ccc(C)c(Cl)c1 (stereo not drawn) | 98 | – | – | viability (at 25 µM (top of the series)): 93.6% (inactive); minimum viability [4]: 86.7%
9 | O=C(CCN1C(=O)/C(=C\C=C\c2ccccc2)SC1=S)Nc1ccccc1C(=O)O | 121 | – | 74.5 | –
10 | COc1cc(/C=C2/SC(=S)N(CC(=O)O)C2=O)ccc1OCC(=O)Nc1ccc(C)c(C)c1 | 107 | 103% (inactive) | – | minimum viability (at 0.2 µM, stronger effect = lower value): 98.9%
11 | CC(C)S(=O)(=O)C1=NSC2=NC(=O)/C(=C\c3ccc(-c4cccc(C(=O)O)c4)o3)C(=N)N21 | 90.9 | 101% (inactive) | – | minimum viability [4]: 85.2%
12 | O=C(O)CN1C(=O)/C(=C\c2cc(Br)ccc2OCc2ccccc2Cl)SC1=S | 112 | 106% (inactive) | – | minimum viability [4]: 94.6%
13 | O=C(O)CSc1cc(C(=O)c2ccccc2O)cn2c(=O)c3c4c(sc3nc12)CCCC4 | 114 | 93.2% (inactive) | – | minimum viability [3]: 92.1%
14 | O=c1[nH]c(=S)[nH]c2c1C(c1ccc(Br)cc1)c1c([nH]c(=S)[nH]c1=O)O2 | 116 | 91.7% (inactive) | – | minimum viability [3]: 82.5%
15 | O=C(O)c1ccc(/C=N/NC(=O)c2ccc(CN3c4cccc5cccc(c45)S3(=O)=O)cc2)cc1 | 93.3 | 85% (inactive) | – | minimum viability [5]: 83.3%
16 | COC(=O)c1sc(-c2ccc(C(C)(C)C)cc2)cc1NC(=O)c1ccccc1C(=O)O | 111 | – | 73.7 | –
17 | CS(=O)(=O)C1=NSC2=NC(=O)/C(=C\c3ccc(OC(=O)c4ccco4)c(Br)c3)C(=N)N21 | 106 | 94.8% (inactive) | 94.8 | –
18 | O=C(O)C1Nc2c(cccc2C(F)(F)F)C2C=CCC12 (stereo not drawn) | 124 | 106% (inactive) | – | minimum viability [3]: 86.1%
19 | O=C(O)CCN1C(=O)/C(=C\c2cccc(OCC(=O)Nc3ccc(Cl)cc3)c2)SC1=S | 88 | – | 73.5 | –
20 | Cc1ccc(N2C(=O)/C(=C/c3ccc(CN(CCC#N)S(C)(=O)=O)o3)C(=O)NC2=S)cc1C | 98.6 | 89.2% (inactive) | – | minimum viability [3]: 84.4%
21 | O=C(O)/C=C/C(=O)Nc1ccc(C2(c3ccc(NC(=O)/C=C/C(=O)O)cc3)c3ccccc3-c3ccccc32)cc1 | 120 | 93.2% (inactive) | – | minimum viability (at 25 µM, stronger effect = lower value): 88.8%
22 | Cc1cc(/C=C2\C(=N)N3N=C(S(C)(=O)=O)SC3=NC2=O)c(C)n1Cc1ccccc1 | 116 | 110% (inactive) | – | minimum viability (at 25 µM, stronger effect = lower value): 106%
23 | O=C(O)COc1ccccc1/C=N/NC(=O)CSc1nnc(SCc2cccc3ccccc23)s1 | 106 | 92.5% (inactive) | – | minimum viability [5]: 86.9%
24 | CC1=C(C(=O)OC(C)C)C(c2ccc(Cl)cc2)n2c(s/c(=C\c3ccc(OCC(=O)O)cc3)c2=O)=N1 (stereo not drawn) | 103 | – | 73.5 | –
25 | CC1=C(C(=O)Nc2ccccc2)C(c2ccc(Cl)cc2)n2c(s/c(=C/c3cccc(OCC(=O)O)c3)c2=O)=N1 (stereo not drawn) | 127 | 114% (inactive) | – | minimum viability [4]: 104%
26 | COc1ccc(O)c(C(=O)c2cc(SCC(=O)O)c3nc4sc5c(c4c(=O)n3c2)CCCC5)c1 | 122 | 96.7% (inactive) | – | minimum viability [3]: 90.5%
27 | CCc1nnc(NS(=O)(=O)c2ccc(NC(=O)/C=C/c3ccccc3Cl)cc2)s1 | 109 | 96.3% (inactive) | – | minimum viability [2]: 95.9%

Row | SMILES | viability [1] [%] | viability (at 50 µM (top of the series)) | minimum viability (at 50 µM, stronger effect = lower value) [%] | other results
28 | Cc1ccc(-n2cccc2/C=C2/C(=N)N3C(=NC2=O)SN=C3S(C)(=O)=O)cc1Cl | 96.7 | – | 77.3 | –
29 | COc1ccc(N2C(=O)/C(=C/c3ccco3)C(=O)NC2=S)cc1 | 86.3 | 100% (inactive) | – | minimum viability [2]: 84.8%
30 | O=C(CCN1C(=O)/C(=C/c2ccco2)SC1=S)Nc1ccc(C(=O)O)c(O)c1 | 108 | 90.6% (inactive) | – | minimum viability [3]: 83%
31 | Cc1ccc(S(=O)(=O)/N=C2/NC(=O)/C(=C/c3cc([N+](=O)[O-])ccc3O)S2)cc1 | 99.3 | 86% (inactive) | 86 | –
32 | O=C(O)CSc1nc(-c2ccc(Cl)cc2)nc2c1oc1ccccc12 | 108 | – | – | viability (at 25 µM (top of the series)): 86.3% (inactive); minimum viability [4]: 86.2%
33 | COc1cc(/C=C2\C(=N)N3N=C(S(C)(=O)=O)SC3=NC2=O)ccc1OC(=O)c1ccco1 | 102 | 101% (inactive) | – | minimum viability [2]: 87.6%
34 | COc1cc(/C=C2/C(=O)NN(c3ccc(C)c(Cl)c3)C2=O)cc([N+](=O)[O-])c1O | 103 | 107% (inactive) | – | minimum viability [2]: 91.2%
35 | CCCOc1ccc(C(=O)NNC(=S)NC(=O)c2cc(-c3ccccc3)nc3ccccc23)cc1 | 112 | 105% (inactive) | – | minimum viability (at 25 µM, stronger effect = lower value): 99%
36 | O=C(O)CN1C(=O)/C(=C\c2cccc(OCc3ccc(Cl)cc3)c2)SC1=S | 98.9 | 83.6% (inactive) | 83.6 | –
37 | Cc1cc(C)c2nc(N3C(=O)C(O)=C(C(=O)c4ccco4)C3c3ccco3)sc2c1 (stereo not drawn) | 119 | 91.8% (inactive) | 91.8 | –
38 | COc1ccc(N=C2S/C(=C\c3ccc(OC(C)C(=O)O)c(OC)c3)C(=O)N2CCc2c[nH]c3ccccc23)cc1 (stereo not drawn) | 148 | – | 70.5 | –
39 | CC(c1ccccc1)N1C(=O)c2ccc(C(=O)Nc3ccc(Br)cc3C(=O)O)cc2C1=O (stereo not drawn) | 118 | 96.8% (inactive) | – | minimum viability [4]: 86.6%
40 | CCN1C(=O)/C(=C\c2ccc(-c3ccc([N+](=O)[O-])cc3OC)o2)SC1=Nc1cccc(C(=O)O)c1 | 106 | 88.3% (inactive) | – | minimum viability [4]: 87.5%
41 | COc1ccc(C(=O)Nc2ccc(/C(C)=N/NC(=O)c3ccncc3)cc2)cc1 | 121 | 88.5% (inactive) | 88.5 | –
42 | CCOc1cc(/C=C2\SC(=O)N(CC(=O)Nc3ccccc3F)C2=O)cc([N+](=O)[O-])c1O | 114 | – | 77.4 | –
43 | O=C(COc1cccc2ccccc12)Nc1ccc(Cl)cc1C(=O)O | 86.1 | – | 67.5 | –
44 | NC(=O)Cn1cc(C=C2C(=O)NC(=O)NC2=O)c2ccccc21 | 99.6 | 91.7% (inactive) | 91.7 | –
45 | Cc1cccc(OCC(=O)Nc2ccc(C(=O)Nc3ccccc3C(=O)O)cc2)c1C | 93 | – | 76.6 | –
46 | CCOC(=O)c1sc(N2C(=O)C(O)=C(C(=O)c3ccco3)C2c2cccc([N+](=O)[O-])c2)nc1C (stereo not drawn) | 110 | 83.5% (inactive) | 83.5 | –
47 | Cc1c(CC(=O)O)c(=O)oc2c(C)c3occ(-c4ccc(Br)cc4)c3cc12 | 123 | – | 75.8 | –
48 | COc1cc(/C=C2/C(=N)N3C(=NC2=O)SN=C3S(C)(=O)=O)ccc1OS(=O)(=O)c1ccccc1 | 94.8 | 87% (inactive) | – | minimum viability (at 25 µM, stronger effect = lower value): 84.7%
49 | CCOc1cc(/C=N/Nc2cccc(C(=O)O)c2)ccc1OC(=O)c1ccccc1 | 110 | 95.7% (inactive) | – | minimum viability [4]: 93.3%
50 | O=C(CSc1nc2ccccc2c(=O)n1Cc1ccccc1)Nc1ccc(Br)cc1C(=O)O | 96.5 | 87.7% (inactive) | – | minimum viability (at 25 µM, stronger effect = lower value): 81.4%
51 | C=CCOC(=O)C1=C(C)N=c2s/c(=C3\C(=O)N(CC(=O)O)c4ccccc43)c(=O)n2C1c1ccc(OC)cc1 (stereo not drawn) | 105 | 97.3% (inactive) | – | minimum viability (at 25 µM, stronger effect = lower value): 85.1%
52 | CCOC(=O)c1sc(N2C(=O)C(O)=C(C(=O)c3ccc(C)o3)C2c2cccc([N+](=O)[O-])c2)nc1C (stereo not drawn) | 94.6 | – | – | minimum viability (at 25 µM, stronger effect = lower value): 63.8%
53 | CCOC(=O)c1c(N2C(=O)Nc3cc(Cl)c(Cl)cc3N2O)sc2c1CCCCC2 | 98.1 | – | 70.1 | –
54 | Cc1ccc(F)c(NC(=O)/C(C#N)=C(\O)c2ccc(C(C)(C)C)cc2)c1 | 101 | – | 76.4 | –
